Earlier results as cited in patent US20050142123A1, “Water-dispersible coenzyme q10 dry powders” (priority 2002, published 2005).

How the values were obtained:
[1] = administered orally

SMILES: COC1=C(OC)C(=O)C(CC=C(C)CCC=C(C)CCC=C(C)CCC=C(C)CCC=C(C)CCC=C(C)CCC=C(C)CCC=C(C)CCC=C(C)CCC=C(C)C)=C(C)C1=O [Coenzyme Q-10, 6-Decaprenyl-2,3-dimethoxy-5-methyl-1,4-benzoquinone]
- bioavailability [1]: poor
- solubility in water: practically insoluble in water
